Assay results as given in patent publication US20250304620A1, “ANTIMICROBIAL PEPTIDE AND APPLICATION THEREOF” (priority 2023, published 2025).
Values after ≈ are worked out from the molar mass of the structure shown. Marks after values point to notes of the source that are not given here. Non-standard residues stand in square brackets, D forms with d. Residues, ends and D or L forms follow the SMILES beside them. dPhe(3,4-Cl2) = N[C@H](Cc1ccc(Cl)c(Cl)c1)C(=O)O; d2Nal = N[C@H](Cc1ccc2ccccc2c1)C(=O)O; dNle = CCCC[C@@H](N)C(=O)O

Key:
[1] = tested on: Pseudomonas aeruginosa ATCC 27853; assay: Injectable formulations on mice infected with peritonitis; type: in vivo, ICR mice; details: twice a day for 3 days; for Number of mice that died on each day after infection: day 1 / Number of mice that died on each day after infection: day 2 / Number of mice that died on each day after infection: day 3 / Number of mice that died on each day after infection: day 4 / Number of mice that died on each day after infection: day 5 / Average survival times (Days): n = 10; for Average survival times (Days): observed for 14 d
Procedure, shortened: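 Survival readout: deaths and survival time tracked for 14 d. Treatment was tail-vein injection by body weight, twice a day for 3 consecutive days, starting right after intraperitoneal challenge with 0.2 mL of 1×10^9 CFU/mL P. aeruginosa ATCC 27853 in male and female ICR mice.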

[2] = tested on: Staphylococcus aureus ATCC 25923; type: cell-based
Procedure, shortened: (§1)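 CLSI microdilution, serial 2-fold dilutions; MIC read-out; n = 5 parallel repeats.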

[3] = tested on: Serratia marcescens ATCC 29021; type: cell-based
Procedure, shortened: as §1

[4] = tested on: Escherichia coli ATCC 25922; type: cell-based
Procedure, shortened: as §1

[5] = tested on: Bacillus subtilis ATCC 6633; type: cell-based
Procedure, shortened: as §1

[6] = tested on: Enterococcus ATCC 29212; type: cell-based
Procedure, shortened: as §1

[7] = tested on: Candida albicans ATCC MYA-2876; type: cell-based
Procedure, shortened: as §1

[8] = tested on: Candida utilis ATCC 9950; type: cell-based
Procedure, shortened: as §1

[9] = tested on: Klebsiella pneumoniae ATCC 700603; type: cell-based
Procedure, shortened: as §1

[10] = tested on: Salmonella typhimurium ATCC 14028; type: cell-based
Procedure, shortened: as §1

[11] = tested on: Candida tropicalis ATCC 750; type: cell-based
Procedure, shortened: as §1

[12] = tested on: Pseudomonas aeruginosa ATCC 27853; type: cell-based
Procedure, shortened: as §1

| SMILES | Number of mice that died on each day after infection: day 1 ([1]; 1 mg/kg via tail vein) [Mouse] | Number of mice that died on each day after infection: day 2 ([1]; 1 mg/kg via tail vein) [Mouse] | Number of mice that died on each day after infection: day 3 ([1]; 1 mg/kg via tail vein) [Mouse] | Number of mice that died on each day after infection: day 4 ([1]; 1 mg/kg via tail vein) [Mouse] | Number of mice that died on each day after infection: day 5 ([1]; 1 mg/kg via tail vein) [Mouse] | Average survival times (Days) ([1]; 1 mg/kg via tail vein) | MIC Staphylococcus aureus ATCC 25923 [2] [µg/mL] | MIC Serratia marcescens ATCC 29021 [3] [µg/mL] | MIC Escherichia coli ATCC 25922 [4] [µg/mL] | MIC Bacillus subtilis ATCC 6633 [5] [µg/mL] | MIC Enterococcus ATCC 29212 [6] [µg/mL] | MIC Candida albicans ATCC MYA-2876 [7] [µg/mL] | MIC Candida utilis ATCC 9950 [8] [µg/mL] | MIC Klebsiella pneumoniae ATCC 700603 [9] [µg/mL] | MIC Salmonella typhimurium ATCC 14028 [10] [µg/mL] | MIC Candida tropicalis ATCC 750 [11] [µg/mL] | MIC Pseudomonas aeruginosa ATCC 27853 [12] [µg/mL] | other results |
| --- | --- | --- | --- | --- | --- | --- | --- | --- | --- | --- | --- | --- | --- | --- | --- | --- | --- | --- |
| CC(=O)N[C@H](CCCNC(=N)N)C(=O)N[C@H](CCCCN)C(=O)N[C@H](CC(C)C)C(=O)N[C@H](CC(C)C)C(=O)N[C@H](Cc1ccc(Cl)c(Cl)c1)C(=O)N[C@H](CCCCN)C(=O)N[C@H](CC(C)C)C(=O)N[C@H](CCCCN)C(=O)N[C@H](Cc1ccc(Cl)c(Cl)c1)C(=O)N[C@H](CCCCN)C(=O)N[C@H](CCCNC(=N)N)C(N)=O [LV-8] (Ac-[dR][dK][dL][dL][dPhe(3,4-Cl2)][dK][dL][dK][dPhe(3,4-Cl2)][dK][dR]-NH2) | 1 | 1 | 0 | 1 | 1 | 9.6*** Days | 1 (≈ 0.604 µM) | 2 (≈ 1.21 µM) | 2 (≈ 1.21 µM) | 2 (≈ 1.21 µM) | 2 (≈ 1.21 µM) | 16 (≈ 9.66 µM) | 8 (≈ 4.83 µM) | 4 (≈ 2.42 µM) | 2 (≈ 1.21 µM) | 16 (≈ 9.66 µM) | 2 (≈ 1.21 µM) |  |
| CC(=O)N[C@H](CCCCN)C(=O)N[C@H](CCCNC(=N)N)C(=O)N[C@H](CC(C)C)C(=O)N[C@H](CC(C)C)C(=O)N[C@H](Cc1ccc2ccccc2c1)C(=O)N[C@H](CCCCN)C(=O)N[C@H](CC(C)C)C(=O)N[C@H](CCCCN)C(=O)N[C@H](Cc1ccc2ccccc2c1)C(=O)N[C@H](CCCCN)C(=O)N[C@H](CCCNC(=N)N)C(N)=O [LV-23] (Ac-[dK][dR][dL][dL][d2Nal][dK][dL][dK][d2Nal][dK][dR]-NH2) | 1 | 1 | 0 | 2 | 0 | 9.5*** Days | 1 (≈ 0.618 µM) | 8 (≈ 4.94 µM) | 2 (≈ 1.24 µM) | 4 (≈ 2.47 µM) | 8 (≈ 4.94 µM) | 16 (≈ 9.89 µM) | 8 (≈ 4.94 µM) | 4 (≈ 2.47 µM) | 2 (≈ 1.24 µM) | 4 (≈ 2.47 µM) | 2 (≈ 1.24 µM) |  |
| CCCC[C@@H](NC(=O)[C@@H](CCCCN)NC(=O)[C@@H](CCCNC(=N)N)NC(C)=O)C(=O)N[C@H](CCCC)C(=O)N[C@H](Cc1ccc2ccccc2c1)C(=O)N[C@H](CCCNC(=N)N)C(=O)N[C@H](CCCC)C(=O)N[C@H](CCCCN)C(=O)N[C@H](Cc1ccc2ccccc2c1)C(=O)N[C@H](CCCNC(=N)N)C(=O)N[C@H](CCCCN)C(N)=O [LV-12] (Ac-[dR][dK][dNle][dNle][d2Nal][dR][dNle][dK][d2Nal][dR][dK]-NH2) | 0 | 0 | 2 | 0 | 1 | 10.9**** Days | 1 (≈ 0.607 µM) | 2 (≈ 1.21 µM) | 1 (≈ 0.607 µM) | 8 (≈ 4.86 µM) | 4 (≈ 2.43 µM) | 8 (≈ 4.86 µM) | 16 (≈ 9.72 µM) | 2 (≈ 1.21 µM) | 4 (≈ 2.43 µM) | 8 (≈ 4.86 µM) | 1 (≈ 0.607 µM) | Number of mice that died on each day after infection: day 1 ([1]; 0.2 mg/kg via tail vein): 2 Mouse; Number of mice that died on each day after infection: day 2 ([1]; 0.2 mg/kg via tail vein): 1 Mouse; Number of mice that died on each day after infection: day 3 ([1]; 0.2 mg/kg via tail vein): 0 Mouse; Number of mice that died on each day after infection: day 4 ([1]; 0.2 mg/kg via tail vein): 2 Mouse; Number of mice that died on each day after infection: day 5 ([1]; 0.2 mg/kg via tail vein): 1 Mouse; Average survival times (Days) ([1]; 0.2 mg/kg via tail vein): 7.3** Days; Number of mice that died on each day after infection: day 1 ([1]; 5 mg/kg via tail vein): 0 Mouse; Number of mice that died on each day after infection: day 2 ([1]; 5 mg/kg via tail vein): 1 Mouse; Number of mice that died on each day after infection: day 3 ([1]; 5 mg/kg via tail vein): 2 Mouse; Number of mice that died on each day after infection: day 4 ([1]; 5 mg/kg via tail vein): 0 Mouse; Number of mice that died on each day after infection: day 5 ([1]; 5 mg/kg via tail vein): 1 Mouse; Average survival times (Days) ([1]; 5 mg/kg via tail vein): 9.7*** Days; survival time of mice infected with Pseudomonas aeruginosa ([1]; tail vein, observed 14 d): superior to those of the Levofloxacin group |
